Activity calls are given as the source filed them.
What was measured:
Streptokinase A = target: T1, Streptokinase A (Streptococcus pyogenes serotype M1, UniProt P10520); assay: viability-normalized secreted streptokinase activity reduction – plasminogen activation absorbance, OD405, dose response (AID 1914); format: functional, Streptococcus pyogenes M1 GAS;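 note: secreted streptokinase activity via plasminogen activation per viability signal from cell pellet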
T1 sequence (P10520 whole entry): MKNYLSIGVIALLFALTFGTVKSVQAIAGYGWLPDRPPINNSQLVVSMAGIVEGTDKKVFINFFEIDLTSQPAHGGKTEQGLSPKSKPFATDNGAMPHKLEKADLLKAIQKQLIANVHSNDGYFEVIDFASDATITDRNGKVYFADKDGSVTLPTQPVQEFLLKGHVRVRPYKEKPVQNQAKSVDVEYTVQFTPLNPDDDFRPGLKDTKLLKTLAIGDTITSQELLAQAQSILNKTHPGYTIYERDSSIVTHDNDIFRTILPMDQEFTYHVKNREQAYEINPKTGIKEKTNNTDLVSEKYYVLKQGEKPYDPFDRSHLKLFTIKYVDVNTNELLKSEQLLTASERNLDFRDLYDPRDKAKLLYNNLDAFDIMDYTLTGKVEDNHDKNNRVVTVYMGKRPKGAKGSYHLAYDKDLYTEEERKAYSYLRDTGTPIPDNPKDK

[1] = test system: Streptococcus sp. 'group A'; assay: Streptococcus pyogenes SK(-)GAS viability under kanamycin – luminescence, BacTiterGlo, confirmation, counter-screen for streptokinase expression inhibitor project, dose response (AID 1900); format: functional, organism-based
Streptococcus = assay: GAS UMAA2166 growth inhibition – luminescence, BacTiterGlo, counter-screen for streptokinase expression inhibitor project, dose response (AID 1915); format: functional, organism-based;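 note: potency for reduction of bacterial viability or growth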
[2] = target: T2, Ubiquitin-conjugating enzyme E2 N (Homo sapiens, UniProt P61088); format: functional;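 note: Dose-response confirmation in a TR-FRET assay detecting UBC13-driven polyubiquitin chain formation, inhibition measured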
T2 sequence (P61088 whole entry): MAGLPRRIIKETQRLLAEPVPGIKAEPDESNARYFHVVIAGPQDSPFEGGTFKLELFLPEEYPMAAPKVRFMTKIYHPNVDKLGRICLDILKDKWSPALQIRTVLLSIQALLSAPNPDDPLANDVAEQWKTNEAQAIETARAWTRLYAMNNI

[3] = viability of uninfected HEp-2 cells – cell-based, HTS, cytotoxicity control for RSV inhibitor project, dose response (AID 2410); format: functional; settings: human respiratory syncytial virus
Cytochrome P450 3A4 = Cytochrome P450 3A4 (Homo sapiens, UniProt P08684); settings: Potency;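 note: confirmatory qHTS run detecting inhibitors and substrates of CYP3A4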
Fatty acid synthase [4] = target: T3, Fatty acid synthase (Homo sapiens, UniProt P49327); assay: inhibition of human FAS-TE enzyme activity – biochemical, kinetic fluorescence intensity, dose response (AID 624326); format: functional;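 note: rate of fluorescence rise from hydrolysis of a fluorogenic O-methyl fluorescein ester substrate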
Fatty acid synthase [5] = target: T3, Fatty acid synthase; assay: inhibition of human FAS-TE enzyme activity – biochemical, endpoint fluorescence intensity, uHTS hits, dose response (AID 624327); format: functional;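 note: fluorescence from hydrolysis of an O-methyl fluorescein acyl ester substrate by the enzyme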
Vero = assay: cells; format: functional; settings: Chlorocebus sabaeus
[6] = target: T4, Carboxy-terminal domain RNA polymerase II polypeptide A small phosphatase 1 (Homo sapiens, UniProt Q9GZU7); assay: CTDSP1 inhibitors, concentration-response, biochemical, absorbance readout, ultra-high-throughput screen actives (AID 540297); format: functional
T4 sequence (Q9GZU7 whole entry): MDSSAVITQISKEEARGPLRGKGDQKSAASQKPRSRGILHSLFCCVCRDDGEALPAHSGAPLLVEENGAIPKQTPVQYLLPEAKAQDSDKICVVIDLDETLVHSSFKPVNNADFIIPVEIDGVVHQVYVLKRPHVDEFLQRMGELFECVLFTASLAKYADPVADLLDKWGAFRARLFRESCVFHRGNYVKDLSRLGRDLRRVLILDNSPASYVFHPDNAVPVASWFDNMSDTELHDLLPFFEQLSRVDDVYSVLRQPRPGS

[7] = target: Induced myeloid leukemia cell differentiation protein Mcl-1 (Homo sapiens, UniProt Q07820); format: functional
[8] = target: T5, Short transient receptor potential channel 4 (Mus musculus, UniProt Q9QUQ5); assay: calcium entry via TRPC4 opening agents – cell-based, HEK293 TRPC4/mu-opioid, Fluo-4 calcium, dose response (AID 434937); format: functional
T5 sequence (Q9QUQ5 whole entry): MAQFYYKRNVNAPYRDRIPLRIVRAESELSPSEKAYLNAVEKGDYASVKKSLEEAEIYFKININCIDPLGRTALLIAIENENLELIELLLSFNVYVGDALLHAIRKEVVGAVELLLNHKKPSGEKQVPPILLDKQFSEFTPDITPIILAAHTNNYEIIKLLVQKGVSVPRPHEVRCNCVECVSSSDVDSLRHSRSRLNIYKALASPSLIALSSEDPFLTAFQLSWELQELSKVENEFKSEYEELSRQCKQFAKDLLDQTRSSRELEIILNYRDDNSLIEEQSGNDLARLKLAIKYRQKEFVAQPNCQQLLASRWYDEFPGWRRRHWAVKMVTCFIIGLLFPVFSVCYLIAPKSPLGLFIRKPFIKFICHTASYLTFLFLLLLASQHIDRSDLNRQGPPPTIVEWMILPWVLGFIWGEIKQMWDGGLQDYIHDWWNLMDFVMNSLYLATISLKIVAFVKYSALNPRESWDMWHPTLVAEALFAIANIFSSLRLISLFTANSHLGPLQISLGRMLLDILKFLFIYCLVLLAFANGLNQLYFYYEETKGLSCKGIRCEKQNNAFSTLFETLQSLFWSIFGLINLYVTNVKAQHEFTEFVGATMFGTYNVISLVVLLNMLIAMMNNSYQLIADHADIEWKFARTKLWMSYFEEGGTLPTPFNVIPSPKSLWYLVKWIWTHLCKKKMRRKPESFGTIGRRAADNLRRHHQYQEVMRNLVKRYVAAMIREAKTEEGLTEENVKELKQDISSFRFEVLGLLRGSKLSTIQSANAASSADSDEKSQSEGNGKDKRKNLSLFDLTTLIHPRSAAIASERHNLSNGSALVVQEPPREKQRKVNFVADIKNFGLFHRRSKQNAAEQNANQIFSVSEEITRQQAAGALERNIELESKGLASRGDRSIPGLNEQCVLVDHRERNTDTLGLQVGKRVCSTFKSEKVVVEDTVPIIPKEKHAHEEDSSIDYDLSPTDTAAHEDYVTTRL

[9] = viability of PTEN-deleted HCT116 cells – cell-based, HCT116 PTEN knockout, dose response (AID 1047); format: functional;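 note: HCT116 colon tumor cells with PTEN knocked out; cells exposed to compound for 60 hours before readout; potency for loss of cell viability measured by luminescence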
[10] = viability of HCT116 lacking mutant beta-catenin – cell-based, human colon tumor, dose response (AID 1045); format: functional;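 note: HCT116 colon tumor cells with beta catenin knocked out; cells exposed to compound for 60 hours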
BJ [11] = assay: BJ-TERT-LT-ST fibroblast viability loss – cell-based, RAS-independent, luminescence, dose response (AID 1935); format: functional; settings: Homo sapiens;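 note: BJ fibroblasts immortalized with TERT plus LT and ST oncogenes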
BJ [12] = assay: BJ-TERT fibroblast viability loss – cell-based, RAS-independent, luminescence, dose response (AID 1933); format: functional; settings: Homo sapiens
[13] = DRD fibroblast viability loss – cell-based, non-viral oncogenic, luminescence, dose response (AID 1934); format: functional; settings: Homo sapiens
BJ [14] = assay: cells; format: functional, cell-based; settings: Homo sapiens
Cytochrome P450 2C9 = Cytochrome P450 2C9 (Homo sapiens, UniProt P11712)
Cytochrome P450 2C19 = Cytochrome P450 2C19 (Homo sapiens, UniProt P33261); assay: Cytochrome panel assay with activity outcomes. Panel member name: p450-cyp2c19 Compounds with AC50 equal or less than 10 uM are considered active; format: functional; settings: read-out: AC50
[15] = Trypanosoma cruzi growth suppression in host cells – NIH3T3 host cells, beta-gal luminescence, confirmation (AID 2044); format: functional, cell-based;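 note: intracellular parasites grown in NIH/3T3 mouse fibroblasts as host cells; luminescent beta-galactosidase reporter signal from transgenic T. cruzi replicating inside host cells; inhibitors lower the luminescence signal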
[16] = NIH3T3 cell viability loss – ATP luminescence, mouse fibroblasts, counter-screen, dose response (AID 2010); format: functional, cell-based;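 note: cells exposed to compound for about 90 hours before reading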

Induced myeloid leukemia cell differentiation protein Mcl-1, sequence (Q07820 whole entry): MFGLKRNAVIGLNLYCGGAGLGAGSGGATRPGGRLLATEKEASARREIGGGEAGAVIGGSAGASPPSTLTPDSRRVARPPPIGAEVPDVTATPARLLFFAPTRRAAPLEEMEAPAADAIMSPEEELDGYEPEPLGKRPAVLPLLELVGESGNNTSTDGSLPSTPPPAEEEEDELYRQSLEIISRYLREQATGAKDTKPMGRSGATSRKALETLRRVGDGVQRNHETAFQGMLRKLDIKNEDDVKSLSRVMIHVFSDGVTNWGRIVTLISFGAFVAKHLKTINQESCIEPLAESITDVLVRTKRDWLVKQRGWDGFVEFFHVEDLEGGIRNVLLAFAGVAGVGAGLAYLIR
T3 sequence (P49327 whole entry): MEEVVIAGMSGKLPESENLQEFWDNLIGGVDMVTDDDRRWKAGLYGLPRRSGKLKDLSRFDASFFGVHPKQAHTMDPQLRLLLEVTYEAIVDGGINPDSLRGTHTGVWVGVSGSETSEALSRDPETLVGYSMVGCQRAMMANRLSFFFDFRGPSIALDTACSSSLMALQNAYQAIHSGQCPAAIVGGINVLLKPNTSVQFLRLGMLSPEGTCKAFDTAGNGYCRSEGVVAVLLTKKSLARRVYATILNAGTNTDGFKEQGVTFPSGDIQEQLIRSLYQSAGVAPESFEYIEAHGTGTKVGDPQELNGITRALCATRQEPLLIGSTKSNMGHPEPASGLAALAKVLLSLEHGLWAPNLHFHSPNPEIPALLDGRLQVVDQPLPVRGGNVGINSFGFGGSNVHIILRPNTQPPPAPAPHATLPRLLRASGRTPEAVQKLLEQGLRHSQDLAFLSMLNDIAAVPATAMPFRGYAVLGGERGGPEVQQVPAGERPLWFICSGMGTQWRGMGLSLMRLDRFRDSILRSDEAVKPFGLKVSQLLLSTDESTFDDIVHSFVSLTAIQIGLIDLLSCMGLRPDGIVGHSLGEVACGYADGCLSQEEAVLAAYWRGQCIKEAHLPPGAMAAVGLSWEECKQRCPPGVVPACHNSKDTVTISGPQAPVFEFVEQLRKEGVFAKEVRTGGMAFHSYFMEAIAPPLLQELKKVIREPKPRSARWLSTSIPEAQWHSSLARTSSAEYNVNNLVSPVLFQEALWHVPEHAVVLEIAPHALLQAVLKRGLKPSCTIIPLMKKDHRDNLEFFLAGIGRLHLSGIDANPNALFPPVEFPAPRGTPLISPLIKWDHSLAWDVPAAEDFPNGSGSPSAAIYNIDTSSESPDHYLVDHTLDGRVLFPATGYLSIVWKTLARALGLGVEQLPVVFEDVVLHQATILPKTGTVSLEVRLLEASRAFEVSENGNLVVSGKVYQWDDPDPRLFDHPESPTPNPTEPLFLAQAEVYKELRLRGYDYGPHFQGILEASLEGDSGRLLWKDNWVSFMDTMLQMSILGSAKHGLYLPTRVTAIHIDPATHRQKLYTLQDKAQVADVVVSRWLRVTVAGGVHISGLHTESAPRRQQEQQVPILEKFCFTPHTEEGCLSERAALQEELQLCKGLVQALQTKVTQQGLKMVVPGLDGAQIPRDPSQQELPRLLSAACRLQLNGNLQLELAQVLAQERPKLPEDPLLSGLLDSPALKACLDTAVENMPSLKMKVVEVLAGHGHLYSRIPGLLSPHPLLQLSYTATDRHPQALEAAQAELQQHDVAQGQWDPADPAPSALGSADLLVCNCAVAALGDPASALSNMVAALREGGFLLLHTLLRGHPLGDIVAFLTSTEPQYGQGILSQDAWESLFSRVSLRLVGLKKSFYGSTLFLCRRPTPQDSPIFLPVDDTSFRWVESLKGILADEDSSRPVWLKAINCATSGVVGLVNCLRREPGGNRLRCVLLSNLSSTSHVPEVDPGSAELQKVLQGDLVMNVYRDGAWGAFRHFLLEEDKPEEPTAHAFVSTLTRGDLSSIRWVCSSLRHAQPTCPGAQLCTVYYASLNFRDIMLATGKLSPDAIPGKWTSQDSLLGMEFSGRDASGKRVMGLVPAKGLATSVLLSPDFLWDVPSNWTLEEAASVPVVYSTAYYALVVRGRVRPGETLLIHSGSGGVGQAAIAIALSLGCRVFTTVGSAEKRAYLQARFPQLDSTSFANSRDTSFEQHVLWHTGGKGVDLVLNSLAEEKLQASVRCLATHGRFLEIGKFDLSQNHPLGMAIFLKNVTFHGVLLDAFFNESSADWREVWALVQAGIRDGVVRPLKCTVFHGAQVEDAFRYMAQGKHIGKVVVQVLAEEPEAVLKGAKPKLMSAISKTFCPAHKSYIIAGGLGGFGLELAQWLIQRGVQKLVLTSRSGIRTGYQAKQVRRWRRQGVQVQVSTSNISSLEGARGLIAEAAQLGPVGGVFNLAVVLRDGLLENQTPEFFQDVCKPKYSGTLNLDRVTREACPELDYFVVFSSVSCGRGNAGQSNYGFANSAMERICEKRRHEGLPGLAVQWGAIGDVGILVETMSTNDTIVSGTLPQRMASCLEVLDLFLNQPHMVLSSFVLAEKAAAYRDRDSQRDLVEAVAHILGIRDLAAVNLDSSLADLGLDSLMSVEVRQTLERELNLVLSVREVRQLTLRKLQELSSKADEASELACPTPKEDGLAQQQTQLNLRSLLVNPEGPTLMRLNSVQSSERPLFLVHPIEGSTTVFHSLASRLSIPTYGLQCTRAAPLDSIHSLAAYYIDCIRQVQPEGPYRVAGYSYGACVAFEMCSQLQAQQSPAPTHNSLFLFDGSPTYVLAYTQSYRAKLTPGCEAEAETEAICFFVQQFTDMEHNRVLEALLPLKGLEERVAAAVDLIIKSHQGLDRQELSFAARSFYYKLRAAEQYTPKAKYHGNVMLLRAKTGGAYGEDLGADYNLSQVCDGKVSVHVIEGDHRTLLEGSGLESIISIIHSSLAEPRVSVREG
Cytochrome P450 3A4, sequence (P08684 whole entry): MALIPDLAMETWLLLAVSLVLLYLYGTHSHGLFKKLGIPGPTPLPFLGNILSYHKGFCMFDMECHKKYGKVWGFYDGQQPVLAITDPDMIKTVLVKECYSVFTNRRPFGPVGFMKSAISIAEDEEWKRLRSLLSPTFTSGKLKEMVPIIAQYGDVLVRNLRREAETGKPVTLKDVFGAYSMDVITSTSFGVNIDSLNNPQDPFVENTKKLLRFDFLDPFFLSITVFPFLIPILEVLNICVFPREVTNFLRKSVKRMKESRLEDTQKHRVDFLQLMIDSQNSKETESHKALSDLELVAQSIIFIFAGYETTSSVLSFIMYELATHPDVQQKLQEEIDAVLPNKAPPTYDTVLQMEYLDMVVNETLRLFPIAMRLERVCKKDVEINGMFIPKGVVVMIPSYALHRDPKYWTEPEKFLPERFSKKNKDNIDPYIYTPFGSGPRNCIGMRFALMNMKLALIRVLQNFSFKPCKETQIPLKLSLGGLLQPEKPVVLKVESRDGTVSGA
Cytochrome P450 2C9, sequence (P11712 whole entry): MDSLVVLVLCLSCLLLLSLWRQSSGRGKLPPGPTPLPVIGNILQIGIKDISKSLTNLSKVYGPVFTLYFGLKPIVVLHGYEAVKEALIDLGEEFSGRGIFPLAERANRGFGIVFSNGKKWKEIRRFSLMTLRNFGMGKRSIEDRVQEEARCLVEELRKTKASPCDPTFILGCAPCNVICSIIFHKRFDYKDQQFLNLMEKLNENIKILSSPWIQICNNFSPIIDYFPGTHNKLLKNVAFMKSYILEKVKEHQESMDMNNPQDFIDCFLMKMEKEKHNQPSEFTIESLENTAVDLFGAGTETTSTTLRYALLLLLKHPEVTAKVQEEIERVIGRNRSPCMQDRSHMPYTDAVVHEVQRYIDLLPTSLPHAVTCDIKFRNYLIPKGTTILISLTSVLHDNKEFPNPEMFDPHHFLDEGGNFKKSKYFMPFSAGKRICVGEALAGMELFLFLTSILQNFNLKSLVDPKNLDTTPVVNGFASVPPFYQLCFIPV
Cytochrome P450 2C19, sequence (P33261 whole entry): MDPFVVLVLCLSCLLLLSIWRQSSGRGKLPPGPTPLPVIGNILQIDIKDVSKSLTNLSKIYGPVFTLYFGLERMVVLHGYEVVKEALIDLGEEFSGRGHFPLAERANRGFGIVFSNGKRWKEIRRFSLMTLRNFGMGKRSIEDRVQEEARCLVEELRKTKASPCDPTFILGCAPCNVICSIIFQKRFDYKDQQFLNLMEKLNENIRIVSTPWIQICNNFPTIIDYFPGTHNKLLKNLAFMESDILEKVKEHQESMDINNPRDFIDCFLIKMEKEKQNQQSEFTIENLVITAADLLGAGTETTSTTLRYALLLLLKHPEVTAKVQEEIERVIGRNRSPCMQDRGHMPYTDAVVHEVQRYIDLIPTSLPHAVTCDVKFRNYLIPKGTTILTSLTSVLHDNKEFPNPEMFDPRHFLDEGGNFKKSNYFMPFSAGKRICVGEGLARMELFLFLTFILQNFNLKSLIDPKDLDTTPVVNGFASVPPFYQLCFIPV

## N#Cc1c(-c2c(Cl)cccc2Cl)noc1/C=C/Nc1ccc(C(=O)O)cc1
cells
  IC50: 32.6 µM (active)
Streptokinase A
  EC50: > 150 µM (not active)
[1]
  EC50: 1.95 µM (active)
Streptococcus
  EC50: 17.5 µM (active)

## COc1ccc(C)cc1NC(=O)c1cc(S(=O)(=O)N2CCCCC2)ccc1N1CCOCC1
[2]
  IC50: > 20 µM (inactive)

## c1ccc(-c2nn3c(Cn4nnc5ccccc54)nnc3s2)cc1
cells
  IC50: > 25 µM (active)

## COc1ccc2nc(NC(=O)c3ccccc3[N+](=O)[O-])sc2c1
cells
  IC50: 9.33 µM (active)
[3]
  CC50: 45.6 µM (active)

## Clc1ccc(C2[C@H]3CN(Cc4ccc(-c5ccccc5)cc4)[C@H](c4ccccc4)C34CC2(c2cccnc2)C4)cn1 (stereo partly drawn)
Cytochrome P450 3A4
  AC50: 15.8 µM (inconclusive)

## CC(C)c1ccc(CCNC(=O)c2ccc([N+](=O)[O-])cc2)cc1
Fatty acid synthase [4]
  IC50: 1.71 µM (active)
Fatty acid synthase [5]
  IC50: 1.51 µM (active)

## Cc1cc(O)c(C(=O)/C=C/c2cccc([N+](=O)[O-])c2)c(=O)o1
Vero
  CC50: 22.6 µM (active)

## O=C(CCCc1ccccc1)Nc1cccc([N+](=O)[O-])c1
Fatty acid synthase [4]
  IC50: 3.7 µM (active)
Fatty acid synthase [5]
  IC50: 7.58 µM (active)

## COCCCNC(=O)/C(C#N)=C/c1ccc(OCC(=O)O)c(OC)c1
[6]
  IC50: 2.19 µM (active)
[7]
  IC50: 4.75 µM (active)

## CCCn1c(-c2ccc(F)cc2)nc2c(N3CCN(C)CC3)nc(C)nc21
Cytochrome P450 3A4
  AC50: 12.6 µM (inconclusive)

## N#Cc1c(-c2ccccc2)c(-c2ccccc2)nn(CC(=O)NNC(=O)Nc2ccc(Cl)cc2)c1=O
Fatty acid synthase [4]
  IC50: 3.01 µM (active)
Fatty acid synthase [5]
  IC50: 3.55 µM (active)

## COc1ccc(C(=O)C2CCCN(C3CSCCSC3)C2)cc1OC (stereo not drawn)
[8]
  EC50: 0.944 µM (active)

## CN(C)c1ccc(/C=C/C(=O)c2ccccc2)cc1[N+](=O)[O-]
[9]
  EC50: 8.26 µM (active)
[10]
  EC50: 7.13 µM (active)

## CC(C)c1n[nH]c2c1C(C1C=CCCC1)C(C#N)=C(N)O2 (stereo not drawn)
Vero
  CC50: 21.9 µM (active)

## NCCCCc1ccc2ccc3cccc4ccc1c2c34
Vero
  CC50: 22.6 µM (active)
[2]
  IC50: > 20 µM (inactive)

## Nc1c(C(=O)NCc2ccco2)c2nc3ccccc3nc2n1Cc1ccc(F)cc1
[9]
  EC50: 168 µM (active)
[10]
  EC50: 348 µM (active)

## CN1C[C@@H]2C(c3ccccc3)C3(c4ccc(C#N)cc4)CC2(C3)[C@H]1c1ccccc1 (stereo partly drawn)
Cytochrome P450 3A4
  AC50: 25.1 µM (inconclusive)

## NC(=S)N=Nc1c(O)[nH]c2ccccc12
[2]
  IC50: > 20 µM (inactive)

## CCO/C(O)=C1/C(C)=NC(SC)=C(C#N)C1CC(C)C (stereo not drawn)
BJ [11]
  EC50: 6.28 µM (inconclusive)
BJ [12]
  EC50: 7.78 µM (active)
[13]
  EC50: 2.97 µM (active)
BJ [14]
  EC50: 35 µM (inconclusive)

## O=[N+]([O-])c1ccc(N2CCNCC2)cc1NC1CC1
[8]
  EC50: 0.168 µM (active)
Cytochrome P450 2C9
  AC50: 15.8 µM (inconclusive)
Cytochrome P450 2C19
  AC50: 25.1 µM (inconclusive)

## Cc1ccccc1C(=O)Nc1nc(-c2cccnc2)cs1
[7]
  IC50: > 54 µM (active)

## c1ccc2c(c1)ccc1ncccc12
Cytochrome P450 3A4
  AC50: 31.6 µM (inconclusive)

## CC1=C(/C=C/C(C)=C/C=C/C(C)=C\C=O)C(C)(C)CCC1
Cytochrome P450 3A4
  AC50: 31.6 µM (inconclusive)

## CCCN(CCC)CCNC(=O)CCC(=O)Nc1ccc2nc(N3CCOCC3)cc(C)c2c1
[8]
  EC50: 0.473 µM (active)

## CN(CCc1ccccn1)C(=O)CC1C(=O)NCCN1Cc1ccccc1C(F)(F)F (stereo not drawn)
[8]
  EC50: 5.96 µM (active)

## COc1ccc([C@@H]2[C@@H]3C(=O)N(C(C)(C)C)C(=O)[C@@H]3[C@]3(Cc4ccc(Cl)cc4)C(=O)N(c4ccc(Br)cc4)C(=O)N23)cc1
Fatty acid synthase [4]
  IC50: 11.2 µM (active)
Fatty acid synthase [5]
  IC50: 11.5 µM (active)

## COc1ccc(C[C@H]2CN3C(=NC[C@@H]3Cc3ccc(O)cc3)N2CCNC(=O)c2ccc(C)c(Br)c2)cc1
[2]
  IC50: > 20 µM (inactive)

## CCN(CC)CCSc1nc2cc(OC)ccc2[nH]1
[8]
  EC50: 0.668 µM (active)

## O=C(Nc1ccn(CCCNCc2cccc3ccccc23)c(=O)n1)OCc1ccccc1
Vero
  CC50: > 25 µM (active)

## O=C(C=Cc1ccccc1)c1cccs1
Vero
  CC50: > 25 µM (active)

## CC(=O)N1N=C(c2ccc(Br)cc2)CC1c1cccc([N+](=O)[O-])c1 (stereo not drawn)
Fatty acid synthase [4]
  IC50: 5.14 µM (active)
Fatty acid synthase [5]
  IC50: 7.1 µM (active)

## COc1cc(/C=N/NC(=O)c2sc(N)c(C#N)c2C)ccc1O
[2]
  IC50: > 20 µM (inactive)

## C=CCn1c(/N=C/c2ccc(N(C)C)cc2)nc2ccccc21
[8]
  EC50: 6.68 µM (active)

## COc1ccc(C(=O)NCC(=O)N/N=C/c2c(C)[nH]c3ccccc23)cc1OC
cells
  IC50: 7.07 µM (active)

## CCCCNC(=S)N(C)/N=C/c1ccc(OCC(=O)Nc2c(C)cc(C)cc2C)c(OC)c1
[9]
  EC50: 66.4 µM (active)
[10]
  EC50: 95.1 µM (active)

## CC(=N)/C(C#N)=C(/O)COc1ncnc2ccccc12
cells
  IC50: 1.77 µM (active)

## CCCOc1ccc(/C=N/NC(=O)CSCc2ccc([N+](=O)[O-])cc2)cc1OCC
[2]
  IC50: 20 µM (active)

## CCOC(=O)c1c(NC(=O)N/N=C/c2ccc(O)c(OC)c2)sc(C(C)=O)c1C
[7]
  IC50: 1.17 µM (active)

## N=c1n(CCN2CCCCC2)c2ccccc2n1CC(O)c1ccc(Cl)c(Cl)c1 (stereo not drawn)
[15]
  EC50: 2.08 µM (active)
[16]
  EC50: > 60 µM (not active)
[9]
  EC50: 4.29 µM (active)
[10]
  EC50: 4.25 µM (active)

## CCOC(=O)c1c(C)cc(O)c(C=O)c1O [ETHYL HEMATOMMATE]
Cytochrome P450 3A4
  AC50: 39.8 µM (inconclusive)

## C/C=C/c1ccc2c(c1)OCO2 [ISOSAFROLE]
Cytochrome P450 3A4
  AC50: 25.1 µM (inconclusive)
